ChEMBL document CHEMBL1201861, “Genomics of Drug Sensitity in Cancer screening data, Wellcome Trust Sanger Institute”

Legend:
Test in all cases: cells
786-0 = type: functional, cell-based, Homo sapiens; details: Homo sapiens
Description: SANGER: Inhibition of human 786-0 cell growth in a cell viability assay.

NCI-H1993 = type: functional, cell-based, Homo sapiens; details: Homo sapiens, NCI-H1993;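 also: growth inhibition of the cancer cell line, assessed with a cell viability assay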
Description: SANGER: Inhibition of human NCI-H1993 cell growth in a cell viability assay.

P12-Ichikawa = type: functional, cell-based; details: Homo sapiens
TGBC24TKB = type: functional, cell-based, Homo sapiens; details: Homo sapiens, TGBC24TKB;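 also: growth inhibition of human TGBC24TKB cells, read out with a cell viability assay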
Description: SANGER: Inhibition of human TGBC24TKB cell growth in a cell viability assay.

CHL-1 = type: functional, cell-based, Homo sapiens; details: Homo sapiens, CHL-1;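 also: cell growth inhibition, read out with a cell viability assay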
Description: SANGER: Inhibition of human CHL-1 cell growth in a cell viability assay.

NEC8 = type: functional, cell-based, Homo sapiens; details: Homo sapiens, NEC8;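 also: growth inhibition of human NEC8 cells, read out by a cell viability assay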
Description: SANGER: Inhibition of human NEC8 cell growth in a cell viability assay.

EW-11 = type: functional, cell-based, Homo sapiens; details: Homo sapiens, EW-11;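 also: growth inhibition of human EW-11 cells, measured with a cell viability assay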
Description: SANGER: Inhibition of human EW-11 cell growth in a cell viability assay.

KU-19-19 = type: functional, cell-based, Homo sapiens; details: Homo sapiens, KU-19-19
Description: SANGER: Inhibition of human KU-19-19 cell growth in a cell viability assay.

ML-2 = type: functional, cell-based; details: Homo sapiens;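 also: growth inhibition of ML-2 cells, measured with a cell viability readout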
Description: SANGER: Inhibition of human ML-2 cell growth in a cell viability assay.

SW 962 = type: functional, cell-based, Homo sapiens; details: Homo sapiens, SW 962;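 also: growth inhibition of human SW962 cells, read out by a cell viability assay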
Description: SANGER: Inhibition of human SW962 cell growth in a cell viability assay.

EGI-1 = type: functional, cell-based, Homo sapiens; details: Homo sapiens, EGI-1;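 also: cell viability readout used to gauge growth inhibition of EGI-1 cells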
Description: SANGER: Inhibition of human EGI-1 cell growth in a cell viability assay.

LS-1034 = type: functional, cell-based, Homo sapiens; details: Homo sapiens, LS-1034
Description: SANGER: Inhibition of human LS-1034 cell growth in a cell viability assay.

HLE = type: functional, cell-based, Homo sapiens; details: Homo sapiens, HLE;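 also: growth inhibition of human HLE cells, read out by a cell viability assay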
Description: SANGER: Inhibition of human HLE cell growth in a cell viability assay.

MC-IXC = type: functional, cell-based, Homo sapiens; details: Homo sapiens, MC-IXC;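 also: growth inhibition of MC-IXC cells, read out with a cell viability assay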
Description: SANGER: Inhibition of human MC-IXC cell growth in a cell viability assay.

SW1463 = type: functional, cell-based, Homo sapiens; details: Homo sapiens, SW1463;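 also: growth inhibition of SW1463 cells, determined with a cell viability assay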
Description: SANGER: Inhibition of human SW1463 cell growth in a cell viability assay.

HCC1937 = type: functional, cell-based, Homo sapiens; details: Homo sapiens, HCC1937;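 also: growth inhibition measured with a cell viability read-out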
Description: SANGER: Inhibition of human HCC1937 cell growth in a cell viability assay.

EW-1 = type: functional, cell-based, Homo sapiens; details: Homo sapiens, EW-1
Description: SANGER: Inhibition of human EW-1 cell growth in a cell viability assay.

COLO-320-HSR = type: functional, cell-based; details: Homo sapiens;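 also: growth inhibition of COLO-320-HSR cells, determined with a cell viability assay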
Description: SANGER: Inhibition of human COLO-320-HSR cell growth in a cell viability assay.

Lu-65 = type: functional, cell-based; details: Homo sapiens;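 also: growth inhibition of Lu-65 cancer cells, read out by a cell viability assay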
Description: SANGER: Inhibition of human LU-65 cell growth in a cell viability assay.

KMOE-2 = type: functional, cell-based; details: Homo sapiens;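 also: growth inhibition of human KMOE-2 cells, read out with a cell viability assay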
Description: SANGER: Inhibition of human KMOE-2 cell growth in a cell viability assay.

CAKI-1 = type: functional, cell-based, Homo sapiens; details: Homo sapiens, CAKI-1;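 also: growth inhibition of CAKI-1 cells, measured by a cell viability assay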
Description: SANGER: Inhibition of human CAKI-1 cell growth in a cell viability assay.

NB14 = type: functional, cell-based; details: Homo sapiens;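 also: growth inhibition of NB14 cells measured with a cell viability assay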
Description: SANGER: Inhibition of human NB14 cell growth in a cell viability assay.

PC-14 = type: functional, cell-based, Homo sapiens; details: Homo sapiens, PC-14;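 also: cell viability assay measuring inhibition of PC-14 cell growth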
Description: SANGER: Inhibition of human PC-14 cell growth in a cell viability assay.

J82 = type: functional, cell-based; details: Homo sapiens;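 also: growth inhibition of J82 cells, read out with a cell viability assay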
Description: SANGER: Inhibition of human J82 cell growth in a cell viability assay.

SNU1 = type: functional, cell-based; details: Homo sapiens;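 also: growth inhibition of human NCI-SNU-1 cells, measured with a cell viability assay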
Description: SANGER: Inhibition of human NCI-SNU-1 cell growth in a cell viability assay.

DSH1 = type: functional, cell-based, Homo sapiens; details: Homo sapiens, DSH1;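 also: growth inhibition of human DSH1 cells, measured with a cell viability readout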
Description: SANGER: Inhibition of human DSH1 cell growth in a cell viability assay.

NCI-H661 = type: functional, cell-based, Homo sapiens; details: Homo sapiens, NCI-H661;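 also: cell viability assay read-out, IC50 being the concentration that inhibits growth of the cells by half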
Description: SANGER: Inhibition of human NCI-H661 cell growth in a cell viability assay.

SAS = type: functional, cell-based, Homo sapiens; details: Homo sapiens, SAS;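 also: growth inhibition of SAS cells, read out with a cell viability assay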
Description: SANGER: Inhibition of human SAS cell growth in a cell viability assay.

A-427 = type: functional, cell-based, Homo sapiens; details: Homo sapiens, A-427;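 also: growth inhibition of human A-427 cells, read out by a cell viability assay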
Description: SANGER: Inhibition of human A427 cell growth in a cell viability assay.

KY821 = type: functional, cell-based; details: Homo sapiens;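 also: growth inhibition of human KY821 cells, read out by a cell viability assay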
Description: SANGER: Inhibition of human KY821 cell growth in a cell viability assay.

TE-9 = type: functional, cell-based, Homo sapiens; details: Homo sapiens, TE-9;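 also: cell growth inhibition, measured with a cell viability readout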
Description: SANGER: Inhibition of human TE-9 cell growth in a cell viability assay.

SiHa = type: functional, cell-based, Homo sapiens; details: Homo sapiens, SiHa;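 also: Viability-based readout of growth inhibition in SiHa cells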
Description: SANGER: Inhibition of human SiHa cell growth in a cell viability assay.

CGTH-W-1 = type: functional, cell-based, Homo sapiens; details: Homo sapiens, CGTH-W-1;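 also: growth inhibition of human CGTH-W-1 cells measured by cell viability assay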
Description: SANGER: Inhibition of human CGTH-W-1 cell growth in a cell viability assay.

MDA-MB-415 = type: functional, cell-based; details: Homo sapiens
LK-2 = type: functional, cell-based, Homo sapiens; details: Homo sapiens, LK-2;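 also: growth inhibition of LK-2 cells, read out with a viability assay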
Description: SANGER: Inhibition of human LK-2 cell growth in a cell viability assay.

NCI-H1770 = type: functional, cell-based; details: Homo sapiens;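 also: growth inhibition of NCI-H1770 cells determined with a viability readout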
Description: SANGER: Inhibition of human NCI-H1770 cell growth in a cell viability assay.

NCI-H446 = type: functional, cell-based; details: Homo sapiens;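 also: growth inhibition of NCI-H446 cells determined by a cell viability assay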
Description: SANGER: Inhibition of human NCI-H446 cell growth in a cell viability assay.

5637 = type: functional, cell-based, Homo sapiens; details: Homo sapiens
Description: SANGER: Inhibition of human 5637 cell growth in a cell viability assay.

PA-1 = type: functional, cell-based, Homo sapiens; details: Homo sapiens, PA-1;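 also: IC50 for suppression of PA-1 cell proliferation, determined with a cell viability read-out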
Description: SANGER: Inhibition of human PA-1 cell growth in a cell viability assay.

PSN1 = type: functional, cell-based, Homo sapiens; details: Homo sapiens, PSN1;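 also: suppression of growth of human PSN1 cells, read out by a cell viability assay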
Description: SANGER: Inhibition of human PSN1 cell growth in a cell viability assay.

HGC-27 = type: functional, cell-based, Homo sapiens; details: Homo sapiens, HGC-27;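 also: growth inhibition of human HGC-27 cells, read out in a cell viability assay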
Description: SANGER: Inhibition of human HGC-27 cell growth in a cell viability assay.

OVCAR-8 = type: functional, cell-based, Homo sapiens; details: Homo sapiens, OVCAR-8;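 also: growth inhibition of human OVCAR-8 cells, read out by a cell viability assay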
Description: SANGER: Inhibition of human OVCAR-8 cell growth in a cell viability assay.

EOL1 = type: functional, cell-based; details: Homo sapiens;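 also: growth inhibition of EoL-1 cells, read out by a cell viability assay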
Description: SANGER: Inhibition of human EoL-1-cell cell growth in a cell viability assay.

ES1 = type: functional, cell-based, Homo sapiens; details: Homo sapiens, ES1;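 also: growth inhibition of ES1 cells, read out with a cell viability assay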
Description: SANGER: Inhibition of human ES1 cell growth in a cell viability assay.

HCC2218 = type: functional, cell-based; details: Homo sapiens;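 also: cell viability assay read-out, with IC50 given as the concentration that inhibits growth of the cell line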
Description: SANGER: Inhibition of human HCC2218 cell growth in a cell viability assay.

RMG-I = type: functional, cell-based, Homo sapiens; details: Homo sapiens, RMG-I;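 also: growth inhibition of human RMG-I cells, read out with a cell viability assay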
Description: SANGER: Inhibition of human RMG-I cell growth in a cell viability assay.

NCI-H1395 = type: functional, cell-based, Homo sapiens; details: Homo sapiens, NCI-H1395;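 also: cell viability assay read-out quantifying reduced proliferation of human NCI-H1395 cells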
Description: SANGER: Inhibition of human NCI-H1395 cell growth in a cell viability assay.

NB17 = type: functional, cell-based; details: Homo sapiens;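 also: growth inhibition of NB17 cells, read out with a cell viability assay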
Description: SANGER: Inhibition of human NB17 cell growth in a cell viability assay.

EFO-27 = type: functional, cell-based, Homo sapiens; details: Homo sapiens, EFO-27;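 also: growth inhibition of EFO-27 cells, read out with a cell viability assay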
Description: SANGER: Inhibition of human EFO-27 cell growth in a cell viability assay.

SK-MEL-1 = type: functional, cell-based; details: Homo sapiens;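 also: growth inhibition of human SK-MEL-1 cells, read out by a cell viability assay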
Description: SANGER: Inhibition of human SK-MEL-1 cell growth in a cell viability assay.

HuTu80 = type: functional, cell-based, Homo sapiens, HUTU-80; details: Homo sapiens, HuTu80;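 also: growth inhibition of HuTu80 human cells, determined with a cell viability readout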
Description: SANGER: Inhibition of human HUTU-80 cell growth in a cell viability assay.

HOP-62 = type: functional, cell-based, Homo sapiens; details: Homo sapiens, HOP-62;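 also: cell growth inhibition determined with a viability assay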
Description: SANGER: Inhibition of human HOP-62 cell growth in a cell viability assay.

MFH-ino = type: functional, cell-based; details: Homo sapiens;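 also: growth inhibition of human MFH-ino cells, read out by a cell viability assay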
Description: SANGER: Inhibition of human MFH-ino cell growth in a cell viability assay.

LB373-MEL-D = type: functional, cell-based, Homo sapiens; details: Homo sapiens, LB373-MEL-D;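 also: growth inhibition of the cell line, read out in a cell viability assay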
Description: SANGER: Inhibition of human LB373-MEL-D cell growth in a cell viability assay.

With `O=C(c1cc(Cc2n[nH]c(=O)c3ccccc23)ccc1F)N1CCN(C(=O)C2CC2)CC1` [OLAPARIB] the IC50 (786-0) was greater than 5000 nM, the IC50 (NCI-H1993) was greater than 5000 nM and the IC50 (P12-Ichikawa) was greater than 5000 nM. For the same compound, the IC50 (TGBC24TKB) was greater than 5000 nM, the IC50 (CHL-1) was greater than 5000 nM and the IC50 (NEC8) was greater than 5000 nM. The IC50 (EW-11) was greater than 5000 nM, the IC50 (KU-19-19) was greater than 5000 nM and the IC50 (ML-2) was 3600 nM. For the same compound, the IC50 (SW 962) was greater than 5000 nM, the IC50 (EGI-1) was greater than 5000 nM and the IC50 (LS-1034) was greater than 5000 nM. The IC50 (HLE) was greater than 5000 nM, the IC50 (MC-IXC) was 3630 nM and the IC50 (SW1463) was greater than 5000 nM. The IC50 (HCC1937) was greater than 5000 nM, the IC50 (EW-1) was greater than 5000 nM and the IC50 (COLO-320-HSR) was greater than 5000 nM. It also gave an IC50 (Lu-65) greater than 5000 nM, an IC50 (KMOE-2) greater than 5000 nM and an IC50 (CAKI-1) greater than 5000 nM. For the same compound, the IC50 (NB14) was greater than 5000 nM, the IC50 (PC-14) was greater than 5000 nM and the IC50 (J82) was greater than 5000 nM. It also gave an IC50 (SNU1) greater than 5000 nM, an IC50 (DSH1) greater than 5000 nM and an IC50 (NCI-H661) greater than 5000 nM. For the same compound, the IC50 (SAS) was greater than 5000 nM, the IC50 (A-427) was greater than 5000 nM and the IC50 (KY821) was greater than 5000 nM. For the same compound, the IC50 (TE-9) was greater than 5000 nM, the IC50 (SiHa) was greater than 5000 nM and the IC50 (CGTH-W-1) was greater than 5000 nM. For the same compound, the IC50 (MDA-MB-415) was greater than 5000 nM, the IC50 (LK-2) was greater than 5000 nM and the IC50 (NCI-H1770) was greater than 5000 nM. The IC50 (NCI-H446) was greater than 5000 nM, the IC50 5637 was greater than 5000 nM and the IC50 (PA-1) was 4250 nM. The IC50 (PSN1) was greater than 5000 nM, the IC50 (HGC-27) was greater than 5000 nM and the IC50 (OVCAR-8) was greater than 5000 nM. It also gave an IC50 (EOL1) of 564 nM, an IC50 (ES1) of 1110 nM and an IC50 (HCC2218) of 3730 nM. For the same compound, the IC50 (RMG-I) was greater than 5000 nM, the IC50 (NCI-H1395) was greater than 5000 nM and the IC50 (NB17) was greater than 5000 nM. It also gave an IC50 (EFO-27) greater than 5000 nM and an IC50 (SK-MEL-1) greater than 5000 nM.

In the case of `C=CCNC1=C2C[C@@H](C)C[C@H](OC)[C@H](O)[C@@H](C)/C=C(\C)[C@H](OC(N)=O)[C@@H](OC)/C=C\C=C(/C)C(=O)NC(=CC1=O)C2=O` [TANESPIMYCIN], the IC50 (HuTu80) is reported as greater than 1000 nM, the IC50 (786-0) is reported as 154 nM and the IC50 (NCI-H1993) is reported as greater than 1000 nM. It also gave an IC50 (P12-Ichikawa) greater than 1000 nM, an IC50 (TGBC24TKB) greater than 1000 nM and an IC50 (CHL-1) of 22.5 nM. The IC50 (NEC8) was greater than 1000 nM, the IC50 (HOP-62) was 499 nM and the IC50 (EW-11) was greater than 1000 nM. For the same compound, the IC50 (KU-19-19) was greater than 1000 nM, the IC50 (ML-2) was 231 nM and the IC50 (SW 962) was 39.5 nM. For the same compound, the IC50 (EGI-1) was greater than 1000 nM, the IC50 (LS-1034) was greater than 1000 nM and the IC50 (HLE) was greater than 1000 nM. It also gave an IC50 (MFH-ino) greater than 1000 nM, an IC50 (MC-IXC) greater than 1000 nM and an IC50 (SW1463) greater than 1000 nM. It also gave an IC50 (HCC1937) of 163 nM, an IC50 (EW-1) greater than 1000 nM and an IC50 (COLO-320-HSR) greater than 1000 nM. For the same compound, the IC50 (Lu-65) was 926 nM, the IC50 (CAKI-1) was 321 nM and the IC50 (NB14) was greater than 1000 nM. It also gave an IC50 (PC-14) of 132 nM, an IC50 (J82) of 273 nM and an IC50 (SNU1) of 2.07 nM. For the same compound, the IC50 (DSH1) was 38.1 nM, the IC50 (NCI-H661) was 611 nM and the IC50 (SAS) was 127 nM. It also gave an IC50 (A-427) of 420 nM, an IC50 (KY821) of 299 nM and an IC50 (TE-9) of 218 nM. It also gave an IC50 (SiHa) of 105 nM, an IC50 (CGTH-W-1) of 23.5 nM and an IC50 (LB373-MEL-D) greater than 1000 nM. For the same compound, the IC50 (MDA-MB-415) was 708 nM, the IC50 (LK-2) was 183 nM and the IC50 (NCI-H1770) was greater than 1000 nM. It also gave an IC50 (NCI-H446) greater than 1000 nM, an IC50 5637 of 57.4 nM and an IC50 (PA-1) of 954 nM. It also gave an IC50 (PSN1) of 46 nM, an IC50 (HGC-27) of 5.1 nM and an IC50 (OVCAR-8) of 86.2 nM. For the same compound, the IC50 (EOL1) was 222 nM, the IC50 (ES1) was greater than 1000 nM and the IC50 (HCC2218) was 24.9 nM. For the same compound, the IC50 (RMG-I) was greater than 1000 nM, the IC50 (NCI-H1395) was 187 nM and the IC50 (NB17) was 880 nM. It also gave an IC50 (EFO-27) of 100 nM and an IC50 (SK-MEL-1) greater than 1000 nM.
